From ChEMBL document CHEMBL5532669, “Guiding the Way: Traditional Medicinal Chemistry Inspiration for Rational Gram-Negative Drug Design” (J Med Chem, 2024)
Converted amounts (≈) assume the structure as drawn. Blank lines part the entries; values can stand above or below the molecule they belong to.

Columns and labels:
Escherichia coli [1] = assay: Antibacterial activity against Escherichia coli assessed as reduction in bacterial growth incubated for 24 hrs by broth micro-dilution method; type: functional
Klebsiella pneumoniae = assay: Antibacterial activity against Klebsiella pneumoniae assessed as reduction in bacterial growth by broth microdilution method; type: functional
Acinetobacter baumannii [2] = assay: Antibacterial activity against Acinetobacter baumannii assessed as reduction in bacterial growth by broth microdilution method; type: functional
Pseudomonas aeruginosa = assay: Antibacterial activity against Pseudomonas aeruginosa ATCC 15442 assessed as bacterial growth inhibition measured after 18 hrs by CLSI protocol based two-fold serial microdilution method; type: functional
Escherichia coli [3] = assay: Antibacterial activity against wild type Escherichia coli assessed as reduction in microbial growth measured after 24 hrs by broth microdilution method
[4] = molecular target: T1, MexAB/OprM (Pseudomonas aeruginosa (strain ATCC 15692 / DSM 22644 / CIP 104116 / JCM14847 / LMG 12228 / 1C / PRS 101 / PAO1)) (UniProt P52477+P52002+Q51487); assay: Inhibition of Pseudomonas aeruginosa MexAB-OprM P delta 6 pore assessed as minimal potentiating concentration for 4 fold reduction carbenicillin MIC; type: protein-complex assay
[5] = molecular target: T1, MexAB/OprM (Pseudomonas aeruginosa (strain ATCC 15692 / DSM 22644 / CIP 104116 / JCM14847 / LMG 12228 / 1C / PRS 101 / PAO1)); assay: Inhibition of Pseudomonas aeruginosa MexAB-OprM P delta 6 pore assessed as minimal potentiating concentration for 4 fold reduction cefotaxime MIC; type: protein-complex assay
[6] = molecular target: T1, MexAB/OprM (Pseudomonas aeruginosa (strain ATCC 15692 / DSM 22644 / CIP 104116 / JCM14847 / LMG 12228 / 1C / PRS 101 / PAO1)); assay: Inhibition of Pseudomonas aeruginosa MexAB-OprM P delta 6 pore assessed as minimal potentiating concentration for 4 fold reduction Levofloxacin MIC; type: protein-complex assay
[7] = molecular target: T1, MexAB/OprM (Pseudomonas aeruginosa (strain ATCC 15692 / DSM 22644 / CIP 104116 / JCM14847 / LMG 12228 / 1C / PRS 101 / PAO1)); assay: Inhibition of Pseudomonas aeruginosa MexAB-OprM P delta 6 pore assessed as minimal potentiating concentration for 4 fold reduction ciprofloxacin MIC; type: protein-complex assay
[8] = molecular target: T1, MexAB/OprM (Pseudomonas aeruginosa (strain ATCC 15692 / DSM 22644 / CIP 104116 / JCM14847 / LMG 12228 / 1C / PRS 101 / PAO1)); assay: Inhibition of Pseudomonas aeruginosa MexAB-OprM P delta 6 pore assessed as minimal potentiating concentration for 4 fold reduction novobiocin MIC; type: protein-complex assay
Escherichia coli [9] = assay: Antibacterial activity against wild type Escherichia coli assessed as reduction in microbial growth measured after 24 hrs by broth microdilution method; remark: listed apart in the source
Enterobacter cloacae = assay: Antibacterial activity against Enterobacter cloacae assessed as reduction in bacterial growth by broth microdilution method; type: functional
Escherichia coli [10] = assay: Antibacterial activity against wild type Escherichia coli ATCC 25922 assessed as reduction in bacterial growth measured after 16 to 20 hrs by CLSI-based microbroth dilution method; type: functional, organism-based
Escherichia coli [11] = assay: Antibacterial activity against wild type Escherichia coli assessed as reduction in bacterial growth inhibition incubated for 24 hrs by broth microdilution method; type: functional, organism-based
Acinetobacter baumannii [12] = assay: Antibacterial activity against wild type Acinetobacter baumannii ATCC 17978 assessed as inhibition of microbial growth measured after 24 hrs by broth microdilution method; type: functional, organism-based; details: ATCC 17978, 24 h

MIC (Escherichia coli [1]): > 128 µg/mL
MIC (Klebsiella pneumoniae): > 128 µg/mL
MIC (Acinetobacter baumannii [2]): 64 µg/mL (≈ 155 µM)
MIC (Pseudomonas aeruginosa): > 128 µg/mL
Compound: Cc1c(CNC2CCCCC2)cc(-c2ccc(Cl)cc2)n1-c1ccc(Cl)cc1

Compound: Nc1cccc(-c2ccc(N3C[C@H](CO)OC3=O)cc2F)n1
IC50 (Escherichia coli [3]): 59 µM

MEC [4]: > 100 µM
MEC [5]: > 100 µM
MEC [6]: > 100 µM
MEC [7]: > 100 µM
MEC [8]: > 100 µM
Compound: O=C(/C=C/c1ccccc1Cl)Nc1ccc(C2=NCCN2)cc1

Compound: CC[n+]1ccc(-c2ccc(N3C[C@H](CO)OC3=O)cc2F)cc1
IC50 (Escherichia coli [9]): 15.4 µM

MIC (Escherichia coli [1]): 0.5 µg/mL (≈ 1.54 µM)
MIC (Enterobacter cloacae): 0.5 µg/mL (≈ 1.54 µM)
MIC (Klebsiella pneumoniae): 1 µg/mL (≈ 3.07 µM)
MIC (Acinetobacter baumannii [2]): 2 µg/mL (≈ 6.15 µM)
MIC (Pseudomonas aeruginosa): 16 µg/mL (≈ 49.2 µM)
Compound: Cc1cc(=O)n(C)c2c3c4c(cc12)c(C)cc(=O)n4C(CN)CO3 (configuration not stated)

Compound: CC(C)[n+]1ccc(-c2ccc(N3C[C@H](CO)OC3=O)cc2F)cc1
IC50 (Escherichia coli [10]): 13.5 µM

Compound: COC(=O)c1ccccc1-c1ccc(N2C[C@H](CO)OC2=O)cc1F
IC50 (Escherichia coli [11]): 23 µM

Compound: O=C1O[C@@H](CO)CN1c1ccc(-c2ccnc(N3CCCC3)c2)c(F)c1
IC50 (Acinetobacter baumannii [12]): 19 µM

Compound: C[n+]1ccc2cc(-c3ccc(N4C[C@H](CO)OC4=O)cc3F)ccc2c1
IC50 (Escherichia coli [9]): 15.4 µM

Compound: N/C(=N/O)c1ccc(-c2ccc(N3C[C@H](CO)OC3=O)cc2F)cc1
IC50 (Escherichia coli [10]): 13.5 µM

MIC (Escherichia coli [1]): 8 µg/mL (≈ 16 µM)
MIC (Klebsiella pneumoniae): 16 µg/mL (≈ 32 µM)
MIC (Acinetobacter baumannii [2]): 8 µg/mL (≈ 16 µM)
MIC (Pseudomonas aeruginosa): 64 µg/mL (≈ 128 µM)
Compound: Cc1c(CNCCCCCCCCNC(=N)N)cc(-c2ccc(Cl)cc2)n1-c1ccc(Cl)cc1

MEC [4]: 100 µM
MEC [5]: 100 µM
MEC [6]: 6.25 µM
MEC [7]: 12.5 µM
MEC [8]: 3.12 µM
Compound: O=C(/C=C/c1ccccc1Cl)Nc1ccc(C2=NCCN2)c(C2=NCCN2)c1

MIC (Escherichia coli [1]): 8 µg/mL (≈ 18.7 µM)
MIC (Klebsiella pneumoniae): 16 µg/mL (≈ 37.3 µM)
MIC (Acinetobacter baumannii [2]): 16 µg/mL (≈ 37.3 µM)
MIC (Pseudomonas aeruginosa): 32 µg/mL (≈ 74.7 µM)
Compound: Cc1c(CNC2CCC(N)CC2)cc(-c2ccc(Cl)cc2)n1-c1ccc(Cl)cc1 (configuration not stated)

Compound: COC(=O)c1cncc(-c2ccc(N3C[C@H](CO)OC3=O)cc2F)c1
IC50 (Acinetobacter baumannii [12]): 19 µM

Compound: C[n+]1ccc(-c2ccc(-c3ccc(N4C[C@H](CO)OC4=O)cc3F)cc2)cc1
IC50 (Escherichia coli [9]): 15.4 µM

Compound: O=C1O[C@@H](CO)CN1c1ccc(-c2ccc(CO)cc2)c(F)c1
IC50 (Escherichia coli [10]): 13.5 µM

Compound: CC(C)c1ccc(-c2ccc(N3C[C@H](CO)OC3=O)cc2F)c(C(C)C)c1
IC50 (Escherichia coli [11]): 23 µM

Compound: CSCc1ccc(N2C[C@H](CO)OC2=O)cc1F
IC50 (Escherichia coli [3]): 59 µM

Compound: O=C1O[C@@H](CO)CN1c1ccc(-c2cccc(CO)c2)c(F)c1
IC50 (Escherichia coli [10]): 13.5 µM

MIC (Escherichia coli [1]): > 32 µg/mL
MIC (Enterobacter cloacae): > 32 µg/mL
MIC (Klebsiella pneumoniae): > 32 µg/mL
MIC (Acinetobacter baumannii [2]): > 32 µg/mL
MIC (Pseudomonas aeruginosa): > 32 µg/mL
Compound: Cc1c(CN(C)C(=O)/C=C/c2cnc3c(c2)CCC(=O)N3)oc2ccccc12 [AFN-1252]

Compound: CCC[n+]1ccc(-c2ccc(N3C[C@H](CO)OC3=O)cc2F)cc1
IC50 (Escherichia coli [9]): 15.4 µM

Compound: O=C1O[C@@H](CO)CN1c1ccc(-c2ccccc2OC(F)(F)F)c(F)c1
IC50 (Escherichia coli [11]): 23 µM

Compound: O=C1O[C@@H](CO)CN1c1ccc(-c2cc[n+](Cc3ccccc3)cc2)c(F)c1
IC50 (Escherichia coli [9]): 15.4 µM

Compound: O=C1O[C@@H](CO)CN1c1ccc(-c2cc(Cl)cc(Cl)c2)c(F)c1
IC50 (Escherichia coli [3]): 59 µM

Compound: CC(O)c1ccc(OCc2ccc(N3C[C@H](CO)OC3=O)cc2F)cc1 (some centres not stated)
IC50 (Escherichia coli [3]): 59 µM

Compound: O=C1O[C@@H](CO)CN1c1ccc(-c2ccc(-c3ccccn3)cc2)c(F)c1
IC50 (Escherichia coli [10]): 13.5 µM

Compound: O=C1O[C@@H](CO)CN1c1ccc(-c2ccccc2)c(F)c1
IC50 (Escherichia coli [10]): 13.5 µM

Compound: C[n+]1cccc(-c2ccc(-c3ccc(N4C[C@H](CO)OC4=O)cc3F)cc2)c1
IC50 (Escherichia coli [9]): 15.4 µM

MIC (Escherichia coli [1]): 4 µg/mL (≈ 10.2 µM)
MIC (Enterobacter cloacae): 8 µg/mL (≈ 20.5 µM)
MIC (Klebsiella pneumoniae): 8 µg/mL (≈ 20.5 µM)
MIC (Acinetobacter baumannii [2]): 4 µg/mL (≈ 10.2 µM)
MIC (Pseudomonas aeruginosa): > 64 µg/mL
Compound: Cc1c(CN(C)C(=O)/C=C/c2cnc3c(c2)CC(N)C(=O)N3)oc2ccccc12 (configuration not stated)

Compound: COCc1ccc(N2C[C@H](CO)OC2=O)cc1F
IC50 (Escherichia coli [3]): 59 µM

Compound: O=Cc1ccc(-c2ccc(N3C[C@H](CO)OC3=O)cc2F)cc1
IC50 (Escherichia coli [10]): 13.5 µM

Compound: O=C1O[C@@H](CO)CN1c1ccc(-c2ccc(SC(F)(F)F)cc2)c(F)c1
IC50 (Escherichia coli [10]): 13.5 µM

Compound: C[n+]1ccccc1-c1ccc(-c2ccc(N3C[C@H](CO)OC3=O)cc2F)cc1
IC50 (Escherichia coli [9]): 15.4 µM
